Values quoted from earlier work, collected in patent publication US20120009644A1, “Tissue Implants for Implantation and Methods for Preparing the Same” (CRYOLIFE, INC., priority 2010, published 2012).

Test system: sensitive bacteria
Conditions: literature review

Structure (SMILES): NCC[C@H](O)C(=O)N[C@@H]1C[C@H](N)[C@@H](O[C@H]2O[C@H](CN)[C@@H](O)[C@H](O)[C@H]2O)[C@H](O)[C@H]1O[C@H]1O[C@H](CO)[C@@H](O)[C@H](N)[C@H]1O [amikacin]
- minimum inhibitory concentration against sensitive bacteria (MIC) range: 0.125 to 32 µg/mL
